Values joined by “and” are separate entries in the source; they are usually repeats but may differ in a detail not shown here. Identical values can stand only once.
Test system: N. gonorrhoeae
Assay: N. gonorrhoeae murine vaginal infection model, efficacy
Format: in vivo, mouse
Conditions: vaginal lavage, individual mice, BID
Procedure: The N. gonorrhoeae female mouse vaginal model[45] was performed in accordance with the Guide for Care and Use of Laboratory Animals[75]. Animal rooms were maintained at a temperature range of 20–24 °C and humidity between 30% and 70%, with 12 h light/dark cycles. Ovariectomized BALB/c female mice (5–6 weeks, BioLASCO Taiwan Co., Ltd.) were treated with estradiol (0.23 mg/mouse) two days before infection and on the day of infection. Ovariectomized mice were used to avoid staging mice before treating them with estradiol. Beginning two days prior to infection and maintained until the end of the study, animals were treated twice daily with streptomycin (1.2 mg/mouse) and vancomycin (0.6 mg/mouse) each via intraperitoneal (IP) injection and received trimethoprim sulfate in the drinking water (0.4 mg/mL) to control vaginal microflora. Animals were anesthetised with pentobarbital (80 mg/kg), the vagina was rinsed with 50 mM HEPES (pH 7.4), and then inoculated with N. gonorrhoeae in pre-warmed PBS (0.02 mL/mouse containing ~1 × 10^5 CFU).
Control groups received either a single IP injection of ceftriaxone or 5% dextrose (vehicle) twice daily. Animals were sacrificed via CO2 asphyxiation at either 2 h (baseline), 26 and/or 50 h post-infection. Vaginal lavage was performed twice with 200 µL GC broth containing 0.05% saponin to recover bacteria. Bacterial burden in the lavage fluids was determined by performing 10-fold serial dilutions and plating on chocolate agar plates. Four strains were assessed using the model; ATCC 700825 is naturally streptomycin-resistant, whereas AR Bank0179-15, AR Bank0181-17 and WHO X-07 are derivatives of AR Bank0179, AR Bank0181 and WHO X, respectively, that were engineered for streptomycin resistance for use in the model.

[1] = N. gonorrhoeae AR Bank0179-15, Debio 1453P 20 mg/kg PO, 48h
[2] = N. gonorrhoeae AR Bank0179-15, Debio 1453P 30 mg/kg PO, 24h
[3] = N. gonorrhoeae AR Bank0179-15, Debio 1453P 30 mg/kg PO, 48h
[4] = N. gonorrhoeae AR Bank0179-15, Debio 1453P 40 mg/kg PO, 24h
[5] = N. gonorrhoeae AR Bank0179-15, Debio 1453P 40 mg/kg PO, 48h
[6] = N. gonorrhoeae AR Bank0179-15, Debio 1453P 80 mg/kg PO, 24h
[7] = N. gonorrhoeae AR Bank0179-15, Debio 1453P 80 mg/kg PO, 48h
[8] = N. gonorrhoeae AR Bank0181-17, Debio 1453P 20 mg/kg PO, 24h
[9] = N. gonorrhoeae AR Bank0181-17, Debio 1453P 30 mg/kg PO, 24h
[10] = N. gonorrhoeae AR Bank0181-17, Debio 1453P 40 mg/kg PO, 24h
[11] = N. gonorrhoeae AR Bank0181-17, Debio 1453P 80 mg/kg PO, 24h
[12] = N. gonorrhoeae ATCC 700825, Debio 1453P 10 mg/kg PO, 24h
[13] = N. gonorrhoeae ATCC 700825, Debio 1453P 20 mg/kg PO, 24h

## Cc1c(CN(C)C(=O)/C=C/c2cnc3c(c2)N[C@H](C)[C@H](OP(=O)([O-])[O-])C(=O)N3)oc2ccccc12.[Na+].[Na+] [Debio 1453 P]
[1]
  CFU/mL lavage fluid: <5 CFU/mL and 21100 CFU/mL and 105 CFU/mL and 6100 CFU/mL
  Log10(CFU/mL lavage fluid): <0.70 Log10(CFU/mL lavage fluid) and 4.32 Log10(CFU/mL lavage fluid) and 2.02 Log10(CFU/mL lavage fluid) and 3.79 Log10(CFU/mL lavage fluid)
[2]
  CFU/mL lavage fluid: <5 CFU/mL and 545 CFU/mL and 85 CFU/mL and 5500 CFU/mL and 125 CFU/mL
  Log10(CFU/mL lavage fluid): <0.70 Log10(CFU/mL lavage fluid) and 2.74 Log10(CFU/mL lavage fluid) and 1.93 Log10(CFU/mL lavage fluid) and 3.74 Log10(CFU/mL lavage fluid) and 2.1 Log10(CFU/mL lavage fluid)
[3]
  CFU/mL lavage fluid: <5 CFU/mL and 205 CFU/mL
  Log10(CFU/mL lavage fluid): <0.70 Log10(CFU/mL lavage fluid) and 2.31 Log10(CFU/mL lavage fluid)
[4]
  CFU/mL lavage fluid: 7600 CFU/mL and <5 CFU/mL and 200 CFU/mL and 115 CFU/mL
  Log10(CFU/mL lavage fluid): 3.88 Log10(CFU/mL lavage fluid) and <0.70 Log10(CFU/mL lavage fluid) and 2.3 Log10(CFU/mL lavage fluid) and 2.06 Log10(CFU/mL lavage fluid)
[5]
  CFU/mL lavage fluid: 65 CFU/mL and <5 CFU/mL
  Log10(CFU/mL lavage fluid): 1.81 Log10(CFU/mL lavage fluid) and <0.70 Log10(CFU/mL lavage fluid)
[6]
  CFU/mL lavage fluid: <5 CFU/mL
  Log10(CFU/mL lavage fluid): <0.70 Log10(CFU/mL lavage fluid)
[7]
  CFU/mL lavage fluid: <5 CFU/mL
  Log10(CFU/mL lavage fluid): <0.70 Log10(CFU/mL lavage fluid)
[8]
  CFU/mL lavage fluid: 1880000 CFU/mL and 790000 CFU/mL and 670000 CFU/mL and 810000 CFU/mL and 720000 CFU/mL
  Log10(CFU/mL lavage fluid): 6.27 Log10(CFU/mL lavage fluid) and 5.9 Log10(CFU/mL lavage fluid) and 5.83 Log10(CFU/mL lavage fluid) and 5.91 Log10(CFU/mL lavage fluid) and 5.86 Log10(CFU/mL lavage fluid)
[9]
  CFU/mL lavage fluid: 380000 CFU/mL and 1120000 CFU/mL and 11300 CFU/mL and 201000 CFU/mL and 620000 CFU/mL
  Log10(CFU/mL lavage fluid): 5.58 Log10(CFU/mL lavage fluid) and 6.05 Log10(CFU/mL lavage fluid) and 4.05 Log10(CFU/mL lavage fluid) and 5.3 Log10(CFU/mL lavage fluid) and 5.79 Log10(CFU/mL lavage fluid)
[10]
  CFU/mL lavage fluid: 11500 CFU/mL and 123000 CFU/mL and 200000 CFU/mL and 830000 CFU/mL and 730000 CFU/mL
  Log10(CFU/mL lavage fluid): 4.06 Log10(CFU/mL lavage fluid) and 5.09 Log10(CFU/mL lavage fluid) and 5.3 Log10(CFU/mL lavage fluid) and 5.92 Log10(CFU/mL lavage fluid) and 5.86 Log10(CFU/mL lavage fluid)
[11]
  CFU/mL lavage fluid: 275 CFU/mL
  Log10(CFU/mL lavage fluid): 2.44 Log10(CFU/mL lavage fluid)
[12]
  CFU/mL lavage fluid: 50000 CFU/mL and 21700 CFU/mL and 23000 CFU/mL and 15500 CFU/mL and 490000 CFU/mL
  Log10(CFU/mL lavage fluid): 4.7 Log10(CFU/mL lavage fluid) and 4.34 Log10(CFU/mL lavage fluid) and 4.36 Log10(CFU/mL lavage fluid) and 4.19 Log10(CFU/mL lavage fluid) and 5.69 Log10(CFU/mL lavage fluid)
[13]
  CFU/mL lavage fluid: 7500 CFU/mL and 5100 CFU/mL and 204000 CFU/mL and 15100 CFU/mL
  Log10(CFU/mL lavage fluid): 3.88 Log10(CFU/mL lavage fluid) and 3.71 Log10(CFU/mL lavage fluid) and 5.31 Log10(CFU/mL lavage fluid) and 4.18 Log10(CFU/mL lavage fluid)
